Non-standard residues stand in square brackets, D forms with d. Residues, ends and D or L forms follow the SMILES beside them. *: point of attachment. Phe(F5) = N[C@@H](Cc1c(F)c(F)c(F)c(F)c1F)C(=O)O; hArg = N=C(N)NCCCC[C@H](N)C(=O)O; 12Ado = NCCCCCCCCCCCC(=O)O; Nle = CCCC[C@H](N)C(=O)O; Orn = NCCC[C@H](N)C(=O)O; Abu = CC[C@H](N)C(=O)O; PhAc = O=C(Cc1ccccc1)*
Tests used:
PC3 xenograft = test: Xenograft tumor growth in nude mice, prostate cancer PC3; type: in vivo; settings: Panel N, 8 weeks, 5 μg/day s.c.
Protocol: The peptides' activity was compared with GHRH antagonist MIA-602. All statistical analyzses were performed from comparing GHRA antagonists to non-treated tumor (control).
Peptides and chemicals. GHRH antagonists MIA-602 and AVR-GHRH antagonists (see Table 2 above) were synthesized by solid phase methods and purified by HPLC. The peptides were dissolved in DMSO and further diluted in 10% 1, 2-propanediol. The final concentration of peptides was 50 µg/ml in 10% 1, 2-propanediol containing 0.1% of DMSO.
Cell culture. Human cancer cell lines including pancreatic (PANC-1 and CFPAC-1), lung (HCC827 and H460), stomach (NCI-N87), prostate (PC3), brest (MX-1 and HCC-1806), colorectal (HT-29), and ovarian (SK-OV-3 and OVCAR-3) were obtained from the American Type Culture Collection (ATCC) and cultured at 37° C. in a humidified 95% air/5% CO2 atmosphere in the medium recommended by ATCC.
Xenograft models of human cancers in nude mice. Female athymic (NCr nu/nu) nude mice, 5-to 6-weeks-old, obtained from the Envigo labs (Tampa, FL), were housed in laminar airflow cabinets under pathogen-free conditions with a 12-h light/12-h dark schedule, and were fed autoclaved standard chow and water. To generate mice with xenografted tumors, tumor xenografts were initiated by subcutaneous (s.c.) injection of […] human cancer cells into female nude mice. After about 4 weeks the resulting tumors were dissected and collected after removing necrosis tissues. The tumors were then cut into particles with size of ˜3 mm3 and transplanted s.c. by trocar needle into experimental animals. When tumors grew to the size of 50-60 mm3 (by volume), mice were randomized into groups and treated daily for 4-8 weeks by subcutaneous administration of 5 μg of GHRH antagonists MIA-602 or AVR-compounds (2-10 μg as indicated), or vehicle solutions (0.1% DMSO in 10% 1, 2-propanediol) respectively. Tumor sizes were measured weekly.
Statistical analysis. One-way ANOVA followed by Bonferroni comparison were performed. Data are expressed as Mean±SEM. […]

[1] = test system: mouse lung fibroblasts (Mlg 2908); test: Cellular respiration, Seahorse XF Cell Mito Stress Test; type: cell-based; settings: 24 hours
Protocol: Lung fibroblasts. Newborn mouse lung fibroblasts (Mlg 2908) were obtained from the American Type Culture Collection, Manassas, VA and cultured in Eagle's minimal essential medium. Cells were grown in 6-well plates before incubation with 1 or 5 μM MIA-602 or vehicle, RNA isolation, and oxygen consumption measurements.
Cellular respiration. The effects of MIA-602 on mouse lung fibroblast oxygen consumption was measured using the Agilent Seahorse XF Cell Mito Stress Test (Agilent Technologies, Santa Clara, CA) (Divakaruni A, Paradyse A, Ferrick D, Murphy A, Jastroch M (2014). Methods in Enzymology 547:309-354). Fibroblasts were incubated with vehicle, 1 or 5 μM MIA-602 for 24 hours before measurement of oxygen consumption. One day before assay 80,000 fibroblasts were seeded into Seahorse 24-well plates (n=6 wells per condition). Basal respiration was established and oligomycin, FCCP and rotenone plus antimycin A were added sequentially to measure ATP production, uncoupled respiration; and, non-mitochondrial oxygen consumption (Wangpaichitr, Wu C, Li Y, Nguyen D, Kandemir H, Shah S, Chen S, Feun L, Prince J, Kuo M, Savaraj N (2017). Oncotarget 8(30):49275-49292).

[2] = test system: C57Bl/6J mice treated with bleomycin; test: RNAseq and pathway analysis of lung tissue of bleomycin-treated mice; type: in vivo, mouse; settings: bleomycin 28 days, MIA-602 versus vehicle
Protocol: Bleomycin and GHRH-R antagonist treatment. Mice were treated with 0.8 units of bleomycin (Bleomycin for Injection USP, Hospira, Lake Forest, IL) intraperitoneally (IP) on days 1, 3, 7, 10, 14 and 21 (Collins S, Chan-Li Y, Oh M, Vigeland C, Limjunyawong N, Mitzner W, Powell J D, Horton M R (2016). JCI Insight 1(4):1-13). Mice (randomly assigned) were simultaneously treated subcutaneously (sc) with MIA-602 (5 μg/day) or its vehicle (100 μL/day). MIA-602 was dissolved in DMSO (ACS grade; Sigma-Aldrich) and diluted 1:500 in normal saline for daily sc injection on days 0-21.
RNA isolation. RNA was extracted from fixed lung tissue in paraffin blocks using a Quick-RNA™ FFPE Kit (R1008, Zymo Research, Irvine, CA) following the manufacturer's protocol (Patel P, Selvarajah S, Guerard K, Bartlett J, Lapointe J, Berman D, Okello J, Park P (2017). PLoS ONE 12:e0179732). […]
RNAseq and Pathway analyses. […] Cluster generation and sequencing was done on the Illumina cBOT and HiSeq 3000 using reagents provided by Illumina, finally generating >32 million single-end 100 base reads per sample. […]
Gene counts were normalized using trimmed mean of M-values (TMM) method. Differential expression between groups was calculated with the exact test implemented in edgeR (Robinson M, McCarthy D, Smyth G (2010). Bioinformatics 26:139-140). […]

In the case of `CCCC[C@H](NC(=O)[C@@H](NC(=O)[C@H](CC(=O)O)NC(=O)[C@H](CCC(N)=O)NC(=O)[C@H](CC(C)C)NC(=O)[C@H](CC(C)C)NC(=O)[C@H](CCCN)NC(=O)[C@H](Cc1c[nH]cn1)NC(=O)[C@H](C)NC(=O)[C@H](CO)NC(=O)[C@H](CC(C)C)NC(=O)[C@H](CCC(N)=O)NC(=O)[C@H](CC)NC(=O)[C@H](CC(C)C)NC(=O)[C@@H](NC(=O)[C@H](CCCN)NC(=O)[C@H](Cc1c[nH]cn1)NC(=O)[C@H](Cc1ccc(OC)cc1)NC(=O)[C@H](CCCCNC(=N)N)NC(=O)[C@H](C)NC(=O)[C@@H](NC(=O)[C@H](Cc1c(F)c(F)c(F)c(F)c1F)NC(=O)[C@@H](NC(=O)[C@H](C)NC(=O)[C@H](CC(=O)O)NC(=O)[C@@H](CCCNC(=N)N)NC(=O)[C@H](Cc1ccc(O)cc1)NC(=O)CCCCCCCCCCCNC(=O)Cc1ccccc1)[C@@H](C)CC)[C@@H](C)O)C(C)C)[C@@H](C)CC)C(=O)N[C@H](CCCNC(=N)N)C(=O)N[C@@H](CCCCNC(=N)N)C(N)=O` [MIA-602, PhAC-Ada, Tyr D-Arg, Asp, Ala, Ile, 5FPhe, Thr, Ala, Har, Tyr(Me), His, Orn, Val, Leu, Abu, Gin, Leu, Ser, Ala, His, Orn, Leu, Leu, Gin, Asp, Ile, Nle, D-Arg, Har NH2, reference compound] ({PhAc-12Ado}-Y[dR]DAI[Phe(F5)]TA[hArg]Y(Me)H[Orn]VL[Abu]QLSAH[Orn]LLQDI[Nle][dR][hArg]-NH2), the “Tumor Growth %” value (PC3 xenograft) is reported as 450.9%, the “Spare respiratory capacity” value ([1]; 5 μM) is reported as “increased” and the “Basal oxygen consumption / basal respiration” value ([1]; 5 μM, compared to vehicle) is reported as “increased basal oxygen consumption”. For the same compound, the “Maximal, uncoupled respiration after FCCP” value ([1]; 5 μM, compared to vehicle) was “increased”, the “Non-mitochondrial respiration after antimycin A and rotenone” value ([1]; 1 and 5 μM) was “appeared to increase non-mitochondrial respiration” and the “Lung gene expression, RNA-seq pathway analysis” value [2] was “suppression of the adaptive immune response, T cell differentiation and activation and cytokine production”.

Source: patent US11993640B2, “Treating inflammatory lung disease” (United States Government as represented by the Department …, priority 2019, dated 2024)
